Measurements from PMC9175492 (Molecular pharmaceutics, 2022).
Numbered stars: 1 amine (or outer) side, 2 acyl side, 3 side chain; on linkers, the order of the positions; unused ones are H or OH. Bridge positions count the residues as written; N and C are the ends. Square brackets hold non-standard residues; d marks the D form. Peptide text beside a SMILES is read from it. I, II: the chains in the order shown. X2 = NC(=O)[C@H](CCCCNC(=O)COCCOCCN[*:1])N[*:2]; 2Nal = N[C@@H](Cc1ccc2ccccc2c1)C(=O)O; Bta = N[C@@H](Cc1csc2ccccc12)C(=O)O

What was measured:
HeLa cells [1] = test: Apparent endosomal escape efficiency; type: cell-based, human; conditions: reference line, 10% or 1% FBS; defined as 100%
HeLa cells [2] = test: MTT cell viability assay; type: cell-based, human; conditions: 72 h, DMEM 10% FBS
[3] = ratio of cytosolic versus extracellular concentration; cited from earlier work
[4] = tested on: HeLa (human cervical cancer) cells; conditions: 10% fetal bovine serum; cited from earlier work
[5] = tested on: intracellular Keap1-Nrf2 interaction, ARE reporter-HepG2 cells; test: ARE luciferase reporter assay; type: cell-based; conditions: 18 h, 0% FBS, n = 5; for Increase of luciferase activity: 0.31 μM; for Maximal induction of luciferase expression: highest concentration tested (5 μM)

## N=C(N)NCCC[C@@H]1NC(=O)[C@H](Cc2ccc3ccccc3c2)NC(=O)[C@@H](Cc2ccccc2)NC(=O)[C@H](Cc2ccccc2)NC(=O)[C@H](CCC(N)=O)NC(=O)[C@@H](CCCNC(=N)N)NC(=O)[C@H](CCCNC(=N)N)NC(=O)[C@@H](CCCNC(=N)N)NC1=O [CPP12, cyclo(Phe-D-Phe-Nal-Arg-D-Arg-Arg-D-Arg-Gln)] (cyclo([2Nal]R[dR]R[dR]QF[dF]))
HeLa cells [1]
  Apparent Endosomal Escape Efficiency (γ, %): 100%
HeLa cells [2]; at ⩾550 μM concentration (so in the source)
  Loss of viability of HeLa cells (MTT): ~ 40%
HeLa cells [2]; up to 25 μM
  Viability of HeLa cells (MTT): did not reduce the viability
[3]
  Cytosolic entry efficiency: 120%
[4]
  Decrease of cytosolic entry efficiency in the presence of 10% FBS: 25 fold

## CC(C)C[C@@H]1NC(=O)[C@H](Cc2ccccc2)NC(=O)[C@H](CCC(=O)O)NC(=O)CNC(=O)[C@H]([C@@H](C)O)NC(=O)[C@H](CCC(=O)O)NC(=O)[C@@H]2CCCN2C(=O)[C@H](CC(=O)O)NC(=O)[C@H](CC(C)C)NC(=O)[C@H](CCC(=O)NCCOCCOCC(=O)NCCCC[C@H](NC(=O)CC[C@@H]2NC(=O)[C@@H](CCCNC(=N)N)NC(=O)[C@H](CCCNC(=N)N)NC(=O)[C@@H](CCCNC(=N)N)NC(=O)[C@H](CCCNC(=N)N)NC(=O)[C@H](Cc3csc4ccccc34)NC(=O)[C@@H](Cc3ccccc3)NC(=O)[C@H](Cc3ccccc3)NC2=O)C(N)=O)NC(=O)CNC1=O [CPP12-2-P1] (I: cyclo(FLGELDPETGE) / II: cyclo(F[dF][Bta]R[dR]R[dR]E); linker I:4-II:8 via X2)
[5]
  Increase of luciferase activity: ~ 2 fold
  Maximal induction of luciferase expression: three- to four-fold

## CC(C)C[C@@H]1NC(=O)[C@H](Cc2ccccc2)NC(=O)[C@H](CCC(=O)O)NC(=O)CNC(=O)[C@H]([C@@H](C)O)NC(=O)[C@H](CCC(=O)O)NC(=O)[C@@H]2CCCN2C(=O)[C@H](CC(=O)O)NC(=O)[C@H](CC(C)C)NC(=O)[C@H](CCC(=O)NCCOCCOCC(=O)NCCCC[C@H](NC(=O)CC[C@@H]2NC(=O)[C@@H](CCCNC(=N)N)NC(=O)[C@H](CCCNC(=N)N)NC(=O)[C@@H](CCCNC(=N)N)NC(=O)[C@H](CCCNC(=N)N)NC(=O)[C@H](Cc3ccc4ccccc4c3)NC(=O)[C@@H](Cc3ccccc3)NC(=O)[C@H](Cc3ccccc3)NC2=O)C(N)=O)NC(=O)CNC1=O [CPP12-P1] (I: cyclo(FLGELDPETGE) / II: cyclo(F[dF][2Nal]R[dR]R[dR]E); linker I:4-II:8 via X2)
[5]
  Increase of luciferase activity: did not have significant effect
  Maximal induction of luciferase expression: three- to four-fold

## CC(C)C[C@@H]1NC(=O)[C@H](Cc2ccccc2)NC(=O)[C@H](CCC(=O)O)NC(=O)CNC(=O)[C@H]([C@@H](C)O)NC(=O)[C@H](CCC(=O)O)NC(=O)[C@@H]2CCCN2C(=O)[C@H](CC(=O)O)NC(=O)[C@H](CC(C)C)NC(=O)[C@H](CCC(N)=O)NC(=O)CNC1=O [Peptide P1]
[5]; up to 5 μM
  Increase in luciferase activity: did not result in significant increase
